In paper PMC5021521, “Coordinated recruitment of Spir actin nucleators and myosin V motors to Rab11 vesicle membranes” (eLife, 2016):
Each block holds one molecule with its values, some of them ahead of it. Peptide text beside a SMILES is read from it. * marks the point of attachment. 5FAM = O=C1OC2(c3ccc(O)cc3Oc3cc(O)ccc32)c2ccc(C(=O)*)cc21; Ahx = NCCCCCC(=O)O

Columns and labels:
[1] = target: T1, MyoVa-GTD (Homo sapiens, UniProt Q9Y4I1); assay: Fluorescence anisotropy, fluorescein-labeled Spir-2 peptide; type: binding; conditions: 1 µM peptide, MyoVa-GTD 50 nM–5 µM; 100 mM Tris-HCl pH 8.0, 150 mM NaCl, 2 mM MgCl2, 2 mM TCEP, 5% glycerol; 25°C; ± standard error; repeated twice with two protein preparations; read-out: equilibrium dissociation constant (Kd)
T1 construct: aa 1461 - 1853 (BamHI / XhoI); His6 (6xHis) with rTEV site (N, cleaved yes); made in house; host or cells: Escherichia coli BL21(DE3) or BL21-CodonPlus-RILP
T1 sequence (Q9Y4I1 1463-1855): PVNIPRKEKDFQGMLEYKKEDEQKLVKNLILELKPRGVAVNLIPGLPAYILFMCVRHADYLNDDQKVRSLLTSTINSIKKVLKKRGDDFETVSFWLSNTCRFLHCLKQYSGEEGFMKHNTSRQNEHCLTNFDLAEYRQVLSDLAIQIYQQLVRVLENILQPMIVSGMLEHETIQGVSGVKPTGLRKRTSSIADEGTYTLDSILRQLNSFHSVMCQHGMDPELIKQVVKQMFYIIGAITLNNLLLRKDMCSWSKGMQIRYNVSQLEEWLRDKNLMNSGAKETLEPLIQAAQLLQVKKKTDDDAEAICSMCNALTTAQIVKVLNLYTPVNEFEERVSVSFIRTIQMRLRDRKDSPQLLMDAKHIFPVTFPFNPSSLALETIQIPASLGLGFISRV
Procedure: (§1) Fluorescence anisotropy measurements were performed on a PTI Quanta-Master QM4CW spectrofluorometer (PTI, Lawrenceville, NJ, USA) at 25°C using a 10 mm wide quartz cell. Bandwidths of excitation and emission monochromators were set respectively at 5 and 15 nm. Fluorescence anisotropy, expressed in millianisotropy units, was calculated according to the equation A=IVV−GIVH/IVV+2GIVH
(§2) with A is anisotropy, G = IHV/IHH is a correction factor for wavelength-dependent distortion, and I is the fluorescence intensity component. Anisotropy values were averaged from 30 different acquisitions. The cell was charged with 1 µM of fluorescein labeled Spir-2-401-427 peptide in a final volume of 1 ml in buffer (100 mM Tris-HCl pH 8.0, 150 mM NaCl, 2 mM MgCl2, 2 mM TCEP, 5% (v/v) glycerol) and titrated with MyoVa-GTD or MyoVb-GTD (50 nM–5 µM). The binding isotherms were fitted to obtain the equilibrium dissociation constants Kd and standard errors, by using the Origin 2015 software that implements Levenberg Marquardt iterative minimization algorithms, using the equation y=F0+Fm−F0/2P(P+x+Kd−(P+x+Kd)^2−4Px)
(§3) with y represents the fluorescence anisotropy, x the concentration of MyoV-GTD, F0 the initial anisotropy, Fm the maximum anisotropy, and P the peptide concentration. Experiments were repeated twice with two different protein preparations.

[2] = target: T2, MyoVb-GTD (Homo sapiens, UniProt Q9ULV0); assay: as above; type: binding
T2 construct: aa 1456 - 1848 (BamHI / XhoI); His6 (6xHis) with rTEV site (N, cleaved yes); made in house; host or cells: Escherichia coli BL21(DE3) or BL21-CodonPlus-RILP
T2 sequence (Q9ULV0 1456-1848): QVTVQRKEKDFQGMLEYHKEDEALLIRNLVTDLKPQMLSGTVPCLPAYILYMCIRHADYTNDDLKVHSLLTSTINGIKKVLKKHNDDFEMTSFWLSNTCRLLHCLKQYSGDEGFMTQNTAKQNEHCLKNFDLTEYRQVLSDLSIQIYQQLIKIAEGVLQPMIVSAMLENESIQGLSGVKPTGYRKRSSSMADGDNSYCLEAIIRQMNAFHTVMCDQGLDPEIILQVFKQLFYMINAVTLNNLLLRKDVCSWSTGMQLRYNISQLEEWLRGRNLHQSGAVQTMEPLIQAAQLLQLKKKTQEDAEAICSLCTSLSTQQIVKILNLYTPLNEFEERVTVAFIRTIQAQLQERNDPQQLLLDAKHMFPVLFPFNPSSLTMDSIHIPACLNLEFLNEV
Procedure: as §1, §2, §3

[3] = test system: GST-Rab11a-Q70L; assay: GST-pulldown from HEK293 lysates; type: binding; conditions: HEK293 lysates over-expressing Myc-Spir-2, Straw-FMN2-FH2-FSI and GFP-MyoVa-FL; N = 2
Procedure: HEK293 cells were co-transfected with expression vectors encoding Myc-Spir-2-FL, mStrawberry-FMN2-FH2-FSI, eGFP-MyoVa-D-FL and eGFP-MyoVa-D-Q1753R, respectively. 24 hr post transfection, cells were lysed in lysis buffer (25 mM Tris-HCl pH 7.4, 150 mM NaCl, 5 mM MgCl2, 10% (v/v) glycerol, 0.1% (v/v) Nonidet P-40, 1 mM PMSF, protease inhibitor cocktail) and centrifuged at 20,000 x g, 4°C, 20 min to remove insoluble debris. For GST-pulldown assays 65 µg GST-Rab11a-Q70L protein (25 µg GST control) was coupled to GSH-Sepharose 4B beads (1:1 suspension) for 1 hr, 4°C on a rotating wheel. Beads were washed twice with pulldown buffer (25 mM Tris-HCl pH 7.4, 150 mM NaCl, 5 mM MgCl2, 10% (v/v) glycerol, 0.1% (v/v) Nonidet P-40) and subsequently incubated with the cell lysates for 2 hr at 4°C on a rotating wheel. Beads were washed four times with pulldown buffer and bound proteins were eluted with 1x Laemmli buffer and denatured at 95°C for 10 min, then were analyzed by immunoblotting.

[4] = test system: Myc-Spir-2; assay: Colocalization with Spir-2 on vesicular structures in HeLa cells; type: cell-based, Homo sapiens; conditions: full-length proteins co-expressed
Procedure: HeLa cells were seeded on microscope cover glasses and transfected with Myc-epitope-tagged Spir-2 proteins and fluorescently-tagged MyoV and Rab11 proteins as described above. Cells were fixed with paraformaldehyde (3.7% in 1x PBS) for 20 min at 4°C and subsequently permeabilized using 0.2% Triton X-100 (in 1x PBS) for 3.5 min, room temperature. […] Finally, cells were mounted on microscope slides with Mowiol and analyzed with a Leica AF6000LX fluorescence microscope, equipped with a Leica HCX PL APO 63x/1.3 GLYC objective and a Leica DFC350 FX digital camera (1392 × 1040 pixels, 6.45 × 6.45 µm pixel size). 3D stacks were recorded and processed with the Leica deconvolution software module. In case of the MyoVa autoregulation/activation experiments, we quantified the MyoVa expression levels. […] In order to clearly distinguish between vesicular and cytoplasmic MyoVa localization, we imaged either high or low expressing cells and determined the sum of pixel gray values per cell as a measure for the MyoVa expression levels. […] Images were recorded using the Leica LASX software and further processed with Adobe Photoshop and subsequently assembled with Adobe Illustrator.

[5] = test system: HeLa cells; assay: Subcellular localization by fluorescence microscopy; type: cell-based; conditions: single expression
Procedure: HeLa cells were seeded on microscope cover glasses and transfected with Myc-epitope-tagged Spir-2 proteins and fluorescently-tagged MyoV and Rab11 proteins as described above. Cells were fixed with paraformaldehyde (3.7% in 1x PBS) for 20 min at 4°C and subsequently permeabilized using 0.2% Triton X-100 (in 1x PBS) for 3.5 min, room temperature. Cells were incubated with anti-c-Myc antibody (9E10, mouse monoclonal, 2 µg/ml, Santa Cruz Biotechnology; RRID: AB_627268) for 1 hr at room temperature and conjugated anti-mouse secondary antibodies (Cy5; from donkey, 3.25 µg/ml, Dianova (RRID: AB_2340820) and TRITC; from donkey, 3.125 µg/ml, Dianova (RRID: AB_2340767)) for 1 hr at room temperature avoiding exposure to light. Finally, cells were mounted on microscope slides with Mowiol and analyzed with a Leica AF6000LX fluorescence microscope, equipped with a Leica HCX PL APO 63x/1.3 GLYC objective and a Leica DFC350 FX digital camera (1392 × 1040 pixels, 6.45 × 6.45 µm pixel size). 3D stacks were recorded and processed with the Leica deconvolution software module. In case of the MyoVa autoregulation/activation experiments, we quantified the MyoVa expression levels. […] In order to clearly distinguish between vesicular and cytoplasmic MyoVa localization, we imaged either high or low expressing cells and determined the sum of pixel gray values per cell as a measure for the MyoVa expression levels. Based on that, we only used cells for the autoregulation analysis having a sum of pixel gray values less than 20 × 10^6 for the expression of GFP-MyoVa-D-FL. Images were recorded using the Leica LASX software and further processed with Adobe Photoshop and subsequently assembled with Adobe Illustrator.

[6] = target: T3, MyoVc-GTD (Homo sapiens, UniProt Q9NQX4); assay: Microscale thermophoresis, fluorescein-labeled Spir-2 peptide; type: binding; conditions: human Spir-2 aa 401–427
T3 construct: aa 1350 - 1742 (BamHI / XhoI); His6 (6xHis) with rTEV site (N, cleaved yes); made in house; host or cells: Escherichia coli BL21(DE3) or BL21-CodonPlus-RILP
T3 sequence (Q9NQX4 1350-1742): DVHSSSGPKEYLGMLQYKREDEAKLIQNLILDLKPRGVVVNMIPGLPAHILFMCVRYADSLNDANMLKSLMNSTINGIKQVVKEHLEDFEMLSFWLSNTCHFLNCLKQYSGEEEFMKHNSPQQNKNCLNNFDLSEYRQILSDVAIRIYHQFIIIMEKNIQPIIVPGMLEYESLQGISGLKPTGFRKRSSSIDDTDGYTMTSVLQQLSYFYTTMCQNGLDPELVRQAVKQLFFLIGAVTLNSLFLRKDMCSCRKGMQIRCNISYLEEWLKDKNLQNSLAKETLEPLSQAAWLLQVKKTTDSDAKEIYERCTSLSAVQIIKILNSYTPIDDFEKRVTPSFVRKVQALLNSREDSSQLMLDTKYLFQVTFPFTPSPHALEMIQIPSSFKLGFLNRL
Procedure: MST experiments were performed on a Monolith NT.115 system (NanoTemper Technologies, München, Germany) using 5% LED and 30% IR-laser power at 21.5°C. Laser on and off times were set at 30 s and 5 s, respectively. Fluorescein labeled Spir-2 peptide was synthesized by Genscript, the peptide was dissolved in PBS with 0.005% Tween-20 and diluted to 1 μM concentration. A two-fold dilution series was prepared for the MyoVc-GTD in the interaction buffer (50 mM Tris pH 8.0, 250 mM NaCl, 2 mM MgCl2, 2 mM TCEP, 5% (v/v) glycerol) and each dilution point was transferred to the Fluorescein-Spir-2 solution. The final concentrations of MyoVc-GTD ranged from 97 μM to 2.96 nM, the final concentration of the labeled peptide was 500 nM. Samples were filled into premium capillaries (NanoTemper Technologies) for measurements. The experiments were performed with three independent replicates. The affinity was quantified by analyzing the change in normalized fluorescence as a function of the concentration of the titrated peptide using the NTAnalysis software provided by the manufacturer.

[7] = target: T1, MyoVa-GTD; assay: Surface plasmon resonance, Rab11a captured; type: binding; conditions: MyoVa-GTD 10 nM–5 µM over captured Rab11a-Q70L(GTP) or Rab11-wt(GDP); 50 mM Hepes pH 7.5, 100 mM NaCl, 2 mM MgCl2, 1 mM TCEP; 25°C; steady state; mean ± SEM, N = 3; read-out: dissociation equilibrium constant (Kd)
Procedure: (§4) The assays were carried out at 25°C in buffer (50 mM Hepes pH 7.5, 100 mM NaCl, 2 mM MgCl2, 1 mM TCEP). 200–250 resonance units (RU; 1RU ≈ 1 pg × mm^−2) of Rab11a-Q70L(GTP) or Rab11-wt(GDP) were captured through their His6-tag on the surface of a NTA sensorchip using a Biacore 2000 instrument (GE Healthcare Life Sciences). MyoVa-GTD or MyoVb-GTD (10 nM–5 µM) were then injected over the tethered Rabs for one minute at a flow rate of […]. The surface was regenerated with a 2-min 0.3 M EDTA incubation and a 1-min 0.1% SDS wash. The real-time interaction profiles were double referenced using the Scrubber 2.0 software (BioLogic Software, Campbell, Australia), both the signals from a reference surface (with a non-relevant protein captured on NTA) and from blank experiments using buffer instead of MyoV-GTD were subtracted. The MyoV-GTD concentration-dependence of the steady-state SPR signals was then analyzed to determine the dissociation equilibrium constants (Kd) of the different complexes using the numerical integration algorithm software Biaevaluation 4.1. Each experiment (10 point 2-fold dilution concentration series each) was repeated in triplicate, yielding mean Kd values and standard errors (SEM).

[8] = target: T2, MyoVb-GTD; assay: Surface plasmon resonance, Rab11a captured; type: binding; conditions: MyoVb-GTD 10 nM–5 µM over captured Rab11a-Q70L(GTP) or Rab11-wt(GDP); 50 mM Hepes pH 7.5, 100 mM NaCl, 2 mM MgCl2, 1 mM TCEP; 25°C; steady state; mean ± SEM, N = 3; read-out: dissociation equilibrium constant (Kd)
Procedure: as §4

Molecule: CSCC[C@H](NC(=O)[C@H](CCC(=O)O)NC(=O)[C@H](C)NC(=O)[C@H](CC(C)C)NC(=O)[C@@H](NC(=O)[C@@H]1CCCN1C(=O)[C@H](C)NC(=O)[C@H](CCCCN)NC(=O)[C@H](CC(C)C)NC(=O)[C@H](CC(C)C)NC(=O)[C@@H](NC(=O)[C@H](CCCNC(=N)N)NC(=O)[C@@H]1CCCN1C(=O)[C@H](CCCNC(=N)N)NC(=O)[C@@H]1CCCN1C(=O)[C@H](CCCNC(=N)N)NC(=O)[C@H](CCC(N)=O)NC(=O)CCCCCNC(=O)c1ccc2c(c1)C(=O)OC21c2ccc(O)cc2Oc2cc(O)ccc21)C(C)C)[C@@H](C)O)C(=O)N[C@@H](CCC(=O)O)C(=O)N[C@@H](CCC(=O)O)C(=O)N[C@@H](CCSC)C(=O)N[C@@H](CC(N)=O)C(=O)N[C@H](C(=O)N[C@@H](CO)C(=O)N[C@@H](CCC(=O)O)C(=O)N[C@@H](CCC(=O)O)C(=O)N[C@@H](CCC(=O)O)C(=O)N[C@@H](CCC(=O)O)C(=O)O)[C@@H](C)O [Fluorescein-Spir-2-GTBM] ({5FAM-Ahx}-QRPRPRVLLKAPTLAEMEEMNTSEEEE-OH)
Kd [1]: 900 ± 110 nM
Kd ([2]; 1 µM peptide, MyoVb-GTD 50 nM–5 µM, 100 mM Tris-HCl pH 8.0, 150 mM NaCl, 2 mM MgCl2, 2 mM TCEP, 5% glycerol, 25°C, ± standard error, repeated twice with two protein preparations, read-out: equilibrium dissociation constant (Kd)): 2000 ± 70 nM

Molecule: GFP-MyoVa-FL: eGFP-tagged full-length MyoVa
pulldown by GST-Rab11a-Q70L in words [3]: able to pull GFP-MyoVa-FL from cell lysates
colocalization with Spir-2 in words [4]: perfect colocalization
subcellular localization in words [5]: even cytoplasmic distribution

Other lines, results leading:

binding affinity in words ([2]; human Spir-2 aa 401–427): low micromolar affinity
binding affinity in words [6]: micromolar range affinity
Molecule: QRPRPRVLLKAPTLAEMEEMNTSEEEE [Spir-2-GTBM]

Kd [7]: 203 ± 42 nM
Kd [8]: 1370 ± 240 nM
B1: Rab11GTP: Rab11a-Q70L(GTP) captured through its His6-tag (protein, UniProt P62491 2-213, looked up, variant Q70L)
Ras-related protein Rab-11A: GTRDDEYDYLFKVVLIGDSGVGKSNLLSRFTRNEFNLESKSTIGVEFATRSIQVDGKTIKAQIWDTAGLERYRAITSAYYRGAVGALLVYDIAKHLTYENVERWLKELRDHADSNIVIMLVGNKSDLRHLRAVPTDEARAFAEKNGLSFIETSALDSTNVEAAFQTILTEIYRIVSQKQMSDRRENDMSPSNNVVPIHVPPTTENKPKVQCC
modifications: His6 tag; GTP-bound
